In EP1039902B1, “INHIBITORS OF GAP JUNCTION COMMUNICATION” (THE SCRIPPS RESEARCH INSTITUTE, priority 1997, dated 1999):
“Also recorded” adds a separate entry of the source. Like-named read-outs stand apart in the source and are kept apart here.

How the values were obtained:
[1] = system: Chinese hamster V79 cells; details: cited from earlier work
[2] = system: rat glial cell gap junction; assay: Gap junction dye coupling assay (Lucifer yellow dye transfer; microinjection or scrape loading); type: cell-based; details: for potency of gap junction inhibition relative to oleamide: comparison in words; for reversibility of gap junction inhibition: removal of media containing the agent, replacement with fresh media
Description: (§1) Rat glial cells (Suter et al., 1987) obtained from Dr. Trosko's laboratory were cultured in standard plastic tissue cultureware in Richter's Improved Minimal Essential Medium (Irvine Scientific, Santa Ana, CA), supplemented with 10% fetal calf serum and 50 µg/ml gentamicin sulfate, and incubated in a humidified atmosphere of 95% air/5% CO2 at 37°C. The cells were passaged by trypsinization and used at passages 4-8. BHK (baby hamster kidney) cells that were stably transfected with a β1 connexin cDNA (Kumar et al., 1995) were cultured in DMEM medium supplemented with 5% fetal calf serum and 50 µg/ml gentamicin sulfate, and incubated in a humidified atmosphere of 95% air/5% CO2 at 37° C. In order to induce β1 connexin expression in the BHK cells, 100 µM zinc acetate was added to culture medium for 8-18 hours when the cell culture was about 90% confluent.
(§2) Gap junctional communication in glial cell and BHK/β1 cell cultures was assayed by microinjection of 5% Lucifer yellow CH dye in 0.1 M LiCl solution, and quantitated by determining the number of directly adjacent, neighboring cells that received dye (dye-coupling). Micropipettes were loaded with the dye solution by backfilling. Cells were visualized using a Nikon Diaphot inverted phase contrast/ epifluorescent microscope, and impaled with dye-filled micropipettes using an Eppendorf microinjector (model 5246). Five minutes after dye-injection, the transfer of dye to directly adjacent cells was determined using epifluorescent illumination. For each treatment condition, ten cells were microinjected in each of three dishes, the total number of dye-coupled neighboring cells was calculated and compared to determine the % dye-coupling. For scrape loading measurements, Lucifer yellow CH (0.05% dye in PBS) was loaded intracellularly by cutting or scraping cells in the monolayer with a sharp knife. The dye solution was left in the dish for 90 seconds, then the solution was discarded, and the dish subsequently washed with PBS. The cells were examined for dye transfer with an inverted epifluorescence microscope, and the degree of communication was assessed by determining the extent of Lucifer yellow transfer into contiguous cells.

[3] = biological target: T1, fatty acid amide hydrolase (Rattus norvegicus, UniProt P97612); assay: Inhibition of fatty acid amide hydrolase; type: biochemical
T1 sequence (P97612 1-579): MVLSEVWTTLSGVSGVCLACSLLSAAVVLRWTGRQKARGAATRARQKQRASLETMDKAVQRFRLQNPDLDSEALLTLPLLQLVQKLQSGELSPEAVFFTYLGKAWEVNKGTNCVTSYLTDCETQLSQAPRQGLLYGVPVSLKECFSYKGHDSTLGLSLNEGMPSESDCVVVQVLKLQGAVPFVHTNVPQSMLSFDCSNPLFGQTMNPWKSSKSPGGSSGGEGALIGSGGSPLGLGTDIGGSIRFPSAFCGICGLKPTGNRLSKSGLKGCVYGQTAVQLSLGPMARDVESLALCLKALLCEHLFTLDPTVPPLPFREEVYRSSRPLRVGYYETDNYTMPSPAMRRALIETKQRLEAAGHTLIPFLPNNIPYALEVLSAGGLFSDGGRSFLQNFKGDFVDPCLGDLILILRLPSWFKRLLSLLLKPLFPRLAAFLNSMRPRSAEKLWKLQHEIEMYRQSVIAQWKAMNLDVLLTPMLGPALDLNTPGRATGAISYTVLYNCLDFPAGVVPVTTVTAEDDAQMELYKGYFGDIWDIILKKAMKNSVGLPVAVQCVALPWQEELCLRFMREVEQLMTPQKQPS

α1 connexin = assay: Immunoblotting of α1 connexin phosphorylation isoforms; type: cell-based, rat; details: for α1 connexin phosphorylation profile (P2 isoform): 50 µM, 4 hours
Description: Plasma membrane fractions containing gap junctions were obtained after hypotonic alkali extraction of the glial cells. The extracted protein was dissolved in 2% SDS and the total protein was determined using the Bio-Rad DC Protein Assay kit (Bio-Rad Corp.). 10 µg of protein was electrophoresed by 10% SDS-PAGE, and subsequently blotted electrophoretically on to Immobilon-P membranes (Millipore Corp.). Gap junction protein was detected using anti-α1 connexin polyclonal rabbit antibodies, and the HRP/Chemiluminescence detection kit (Amersham Corp.) following the manufacturer's instructions.

rat cardiac myocytes = details: cited from earlier work
BHK/β1 cells = assay: Gap junction dye transfer between β1 connexin-transfected BHK cells; type: cell-based, baby hamster
Description: as §1, §2

rat glial cells [4] = assay: Calcium wave propagation (Fluo-3, mechanical stimulation); type: cell-based
Description: Rat glial cells were loaded with 5 µM Fluo-3/AM (Calbiochem) in Hank's balanced salt solution containing 25 mM HEPES buffer (HBSS/HEPES) for 1 hour, at which point the loading buffer was exchanged for new HBSS/HEPES buffer. The cell cultures were then left at room temperature for at least 30 minutes. Mechanical stimulation of a single cell was performed as follows: a glass micropipette (tip diameter of approximately 0.5 µm) was micro-manipulated downward on to a single cell causing a transient deformation of the cell membrane. The calcium image was then examined with an inverted fluorescence microscope, and photographed with a digital fluorescence microscope (excitation = 506 nm, emmision = 526 nm). The degree of calcium wave propagation was quantitated by counting at different time points the number of transmitting cells in one linear direction away from the stimulated cell. Junctional dye transfer rates were simultaneously examined by microinjection of Lucifer yellow CH in the same dishes; the methods for dye transfer assay was described in assay procedures, gap junction dye coupling assays. For calcium wave and dye transfer studies, the drug was preincubated with the glial cells for 10 minutes, and the drug was left in the experimental solution throughout the examination. All measurements were performed at room temperature.

astrocyte calcium waves = details: mechanical stimulation or local glutamate application; cited from earlier work
rat glial cells [5] = assay: Gap junction electrical coupling assay (double whole cell patch recording); type: cell-based
Description: Junctional conductance was measured using double whole cell patch recording performed on pairs of rat glial cells as described (Miller et al., (1992) J Mem. Biol. 128, 91-102) with a pipette solution of (in […]): Kaspartate 160, EGTA 10, CaCl2 2, HEPES 10 (pH 7.2), ATP 4. The external solution contained (in mM): NaCl 160, KCl 4.5, CaCl2 2, MgCl2 1, HEPES 10, pH 7.4. Both cells were held at -40 mV and pulses to -20 mV were alternately applied to each cell. Holding currents were subtracted in the records shown. Cells that were examined were generally in contact with other cells. The electrical conductance was calculated as the junctional current divided by 20 mV. All dye-coupling and conductance studies were performed at room temperature.

astrocyte = details: cited from earlier work
striatal astrocytes = details: cited from earlier work
[6] = Induction of physiological sleep; type: in vivo; details: rats
[7] = system: mammalian myocardial cells; assay: Gap junctional communication between myocardial cells (preliminary analysis); type: cell-based; details: unpublished observations
[8] = animals, ip or iv injection; cited from earlier work
[9] = system: rat liver epithelial cells; details: cited from earlier work
[10] = result in words, concentration not stated at the place

CCCCCCCC/C=C\CCCCCCCC(=O)OCC(CO)OC(C)=O (racemic) [1-oleoyl-2-acetylglycerol, reference compound]
gap junction inhibition [1]: gap junction inhibition
inhibition of gap junction-mediated dye transfer [2, 10]: not inhibitors

CCCCCCCC/C=C\CCCCCCCC(=O)C(F)(F)F [CF3]
potency of gap junction inhibition relative to oleamide [2]: significantly more potent than oleamide
reversibility of gap junction inhibition [2]: reversible effect
Ki [3]: 1 nM

CCCCCCCC/C=C\CCCCCCCC(=O)O [Oleic acid, reference compound]
α1 connexin phosphorylation profile (P2 isoform) (α1 connexin): No change
gap junction inhibition (rat cardiac myocytes): inhibit the gap junction
gap junction inhibition (rat cardiac myocytes; listed as oleic acid): inhibit gap junction communication
effect on dye transfer (BHK/β1 cells; 50 µM, 4 hours of treatment): no effect
effect on dye transfer (BHK/β1 cells; concentration not given): no effect
inhibition of gap junction-mediated dye transfer [2, 10]: inactive; also recorded: no effect
inhibition of gap junction-mediated dye transfer ([2]; result in words, concentration not stated at the place, listed as oleic acid): no effect

CCCCC/C=C\C/C=C\C/C=C\C/C=C\CCCC(=O)NCCO [anandamide, reference compound]
calcium wave transmission (rat glial cells [4]; concentration not given): without affecting calcium wave transmission
propagation of astrocyte calcium waves (astrocyte calcium waves): block the propagation of astrocyte calcium waves
electrical coupling (rat glial cells [5]; concentration not given): selectively inhibiting gap junction communication
effect on dye transfer (BHK/β1 cells; concentration not given): inhibitory effects
inhibition of gap junction-mediated dye transfer ([2]; 50 µM): effective inhibitors
potency of gap junction inhibition relative to oleamide [2]: blocked dye transfer at doses comparable to oleamide
inhibition of gap junction-mediated dye transfer [2, 10]: selectively inhibiting gap junction communication
gap junction-mediated dye transfer (astrocyte): inhibit gap junction-mediated dye transfer

CCCCC/C=C\C/C=C\C/C=C\C/C=C\CCCC(=O)O [arachidonic acid]
gap junction inhibition (striatal astrocytes): inhibit the gap junction

CCCCCCCC/C=C\CCCCCCCCCCCC(N)=O [erucamide, Erucamide]
induction of physiological sleep [6]: does not induce physiological sleep
inhibition of gap junction-mediated dye transfer [2, 10]: not an inhibitor

CCCCCCCC/C=C\CCCCCCCC(N)=O [oleamide, cis-9-octadecenamide]
α1 connexin phosphorylation profile (P2 isoform) (α1 connexin): dramatic loss of the P2 isoform
reversibility of the effect on the α1 phosphorylation profile (α1 connexin; removal of oleamide, normal culture media for 4 hours): proved reversible
mechanically-stimulated or glutamate-induced calcium wave propagation (rat glial cells [4]): no inhibitory effect
mechanically-induced calcium wave propagation (rat glial cells [4]; 50 µM, preincubation from 10 minutes to 4 hours): no impact; also recorded: indistinguishable manner from control cell populations
sensitivity of gap junctional communication to the inhibitory action [7]: not as sensitive
induction of physiological sleep [8]: induce physiological sleep
junctional electrical coupling (rat glial cells [5]; 50 µM): completely blocked; also recorded: completely uncoupled
residual junctional conductance (upper limit) (rat glial cells [5]; 50 µM): less than 50 pS
mean junctional conductance (rat glial cells [5]; 50 µM, n=5): 0.5 ± 0.7 nS
effect on dye transfer (BHK/β1 cells; 50 µM for 10 min): no dye transfer
effect on dye transfer (BHK/β1 cells; 50 µM for 10 min, listed as Oleamide): rapidly and completely block dye transfer
effect on dye transfer (BHK/β1 cells; 50 µM, 4 hours of treatment): completely blocked dye transfer
dye transfer (BHK/β1 cells; 50 µM, 4 hours of treatment, zinc induced sample): 0.31 ± 0.24%
inhibition of glial cell dye transfer ([2]; 20 µM, preincubation 4 h): significantly inhibited
block of intercellular dye transfer, microinjected Lucifer yellow ([2]; 50 µM for 10 min): completely blocked intercellular dye transfer
inhibition of dye transfer ([2]; 50 µM, 4 h prior to injection of Lucifer yellow (dose-response)): complete inhibition
recovery of dye transfer after removal of oleamide ([2]; 50 µM, then fresh media without oleamide): Complete recovery of dye transfer to control levels was observed within one hour
inhibition at 20 µM ([2]; Rattus norvegicus, Glial cell, read-out: inhibition of dye transfer): ~50%
restoration of dye-coupling under continual exposure ([2]; continually exposed for up to 24 h): no restoration of dye-coupling
time for junctional communication to recover to control levels after removal of oleamide ([2]; culture media changed): ≤ 1 h
inhibition of gap junction-mediated dye transfer [2, 10]: most potent inhibitor
dye transfer after scrape loading with Lucifer yellow ([2]; scrape loaded cells, pretreatment with oleamide): fully abrogated; also recorded: no dye spread to adjacent cells

CCCCCCCC/C=C\CCCCCCCC=O [oleyl aldehyde]
potency of gap junction inhibition relative to oleamide [2]: nearly equipotent with oleamide
reversibility of gap junction inhibition [2]: reversible effect
inhibition of gap junction-mediated dye transfer [2, 10]: surprisingly effective
Ki [3]: 190 nM

CCCCCCCC/C=C\CCCCCCCC(=O)NCCO [oleyl ethanolamide]
propagation of astrocyte calcium waves (astrocyte calcium waves): block the propagation of astrocyte calcium waves
inhibition of gap junction-mediated dye transfer ([2]; 50 µM): effective inhibitors
inhibition of gap junction-mediated dye transfer ([2]; 50 µM, listed as Oleyl ethanolamide): significant inhibitors
potency of gap junction inhibition relative to oleamide [2]: less potent than oleamide
potency of gap junction inhibition relative to oleamide ([2]; listed as Oleyl ethanolamide): less potent than oleamide at lower doses
gap junction-mediated dye transfer (astrocyte): inhibit gap junction-mediated dye transfer

CC/C=C\C/C=C\C/C=C\CCCCCCCC(=O)O [α-linolenic acid]
gap junction inhibition [9]: inhibit the gap junction
